Source: patent publication US20250101104A1, “BISPECIFIC MOLECULE WITH TUNABLE AFFINITY TO A TARGETED ANTIGEN” (MABSWITCH INC., priority 2022, published 2025)

What was measured:
[1] = tested on: circulating CD123^+ cells; settings: cited from earlier work
TF-1 AML cell lines = settings: cited from earlier work
CD123+KG-1a = settings: cited from earlier work
[2] = mice; cited from earlier work
[3] = target: T1, Human CD3 epsilon&CD3 gamma Heterodimer Protein (Homo sapiens, UniProt P07766); test: Bispecific functionality ELISA (captured CD3, detection with biotinylated CD33 Fc-fusion); assay type: binding; settings: affinity to the CD3 antigen
T1 construct: purchased Biorbyt Ltd, Cambridge, United Kingdom
T1 sequence (P07766 23-126 limits assumed): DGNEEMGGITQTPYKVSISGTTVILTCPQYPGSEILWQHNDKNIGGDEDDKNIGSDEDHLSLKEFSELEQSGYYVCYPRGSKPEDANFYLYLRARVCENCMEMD
T1 sequence (P09693 23-116 partner limits assumed): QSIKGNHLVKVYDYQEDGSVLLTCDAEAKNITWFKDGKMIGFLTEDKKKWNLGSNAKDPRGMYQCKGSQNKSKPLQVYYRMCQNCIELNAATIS
Method: Bispecific functionality is tested in an ELISA using soluble Human CD3 epsilon&CD3 gamma Heterodimer Protein (Biorbyt Ltd, Cambridge, United Kingdom) that is captured to the ELISA plate surface and an Fc-fusion of CD33 that carried an AviTag™ (biotinylated) (BPS Bioscience, Inc., San Diego, USA) detected by HRP conjugated streptavidin (BPS Bioscience, Inc., San Diego, USA). Dilution curves of the protein A purified bispecific scFv-Fc constructs are compared. For control, a bispecific scFv-Fc construct wherein the linker between the OKT3 variable heavy chain sequence to the OKT3 variable light chain sequence is a non-switchable variant (GGGGSGGGGSGG GGS (SEQ ID NO: 365)) is constructed, produced and purified as described above.

[4] = tested on: CD3 positive Jurkat cells; test: Switch activity on living cells, flow cytometry; assay type: cell-based; settings: incubated with the switch peptide variant SEQ ID NO:2
Method: The bispecific switchable anti-CD3/antiCD33 Fc fusion protein product MS42-13 is further tested for switch activity in the presence and absence of switch linkers on living cells using flow cytometry. For the cytofluorometry analysis, CD3 positive Jurkat cells (ATCC, Clone E6-1), cultivated in suspension culture as described by the provider, are seeded in FACS tubes and washed with 3 mL PBS supplemented with 2 mM EDTA and 2% (v/v) FCS (centrifugation for 5 min at 500×g and 4-C). Cells are incubated with […] of various dilutions of scFv-Fc bispecific antibody constructs (between 10 ng/mL and […]) for 1 h on ice. Cells are washed two times with 3 mL PBS (centrifugation for 5 min at 500×g and 4-C) and are incubated with 100 μL Fc-fusion of CD33 that carried an AviTag™ (biotinylated) (BPS Bioscience, Inc., San Diego, USA) (Fc-specific) for 1 h on ice in the dark in either the presence or absence of the switch peptides (1 μM or 10 μM). […] A minimum of 10^4 events are analyzed per sample. Analysis is performed with CXP analysis 2.2 software (Beckman Coulter, Fullerton, CA) and Mean Fluorescence Intensities (MFI) are determined using Flowjo™ software (Treestar).

Row | Substance | T cell activation ([1]; cynomolgus monkeys) | depletion of circulating CD123+ cells including basophils and plasmacytoid dendritic cells ([1]; within 1 hour of administration) | EC50 of T cell-mediated killing (TF-1 AML cell lines) | EC50 of T cell-mediated killing (CD123+KG-1a) | serum half-life [2] | drop in EC50 compared to the construct with the non-switchable wild type Gly-Ser linker [3] | increase of half-maximal binding compared to the construct with the non-switchable linker (SEQ ID NO:365) [4]
1 | XmAb14045: Fc domain-containing bispecific antibody stimulating T cell-mediated killing of CD123+ cells | strongly activated T cells | over 99% | < 1 ng/mL | < 1 ng/mL | 149 h | – | –
2 | MS42-13: switchable bispecific anti-CD3/anti-CD33 scFv-Fc fusion: OKT3 scFv with calmodulin switch linker, gemtuzumab scFv, knob-into-hole Fc (SEQ ID NO:366, 367) | – | – | – | – | – | 24.6 fold | ≤ 21.3 fold
